Measured values reported in patent US8129163B2, “Gene suitable for alcohol dehydrogenase, vector and transformant” (Kaneka Corporation, priority 2006, dated 2012).

system: RMA; settings: carbonyl compound 1.5 mM, NADH 0.25 mM, pH 6.5, 30° C.; acetophenone = 100%

SMILES | Relative activity (%) (reducing activity)
CC(=O)c1ccccn1 [2-Acetylpyridine] | 63%
CC(=O)c1ccco1 [2-Acetyrfuran] | 8%
CCC(C)=O [2-Butanone] | 54%
CCCCCC(C)=O [2-Heptanone] | 82%
CCCCC(C)=O [2-Hexanone] | 87%
CCCCCCC(C)=O [2-Octanone] | 95%
CCCC(C)=O [2-Pentanone] | 141%
CC(C=O)c1ccccc1 (stereo not drawn) [2-Phenypropionaldehyde] | 37%
O=Cc1ccccn1 [2-Pyridinecarbaldehyde] | 11%
CC(=O)CC(=O)Nc1cc(Cl)ccc1Cl [2′,5′-Dichloro acetoacetanilide] | 34%
CC(=O)c1cccnc1 [3-Acetylpyridine] | 19%
CC(=O)C(Cl)C(C)=O [3-Chloro-2,4-pentadione] | 43%
CCCCCC(=O)CC [3-Octanone] | 3%
O=CCCc1ccccc1 [3-Phenypropionaldehyde] | 112%
CC(=O)c1ccncc1 [4-Acetylpyridine] | 83%
CC(=O)CC(C)C [4-Methyl-2-pentanone] | 70%
O=Cc1ccncc1 [4-Pyridinecarbaldehyde] | 5%
CC(=O)CC(=O)Nc1ccc(Cl)cc1 [4′-Chroloacetoacetanilide] | 4%
CC(=O)c1cc2ccoc2cn1 [5-Acetylfuro[2.3-c]pyridine] | 63%
CC(=O)CC(C)=O [Acethylacetone] | 19%
CC(=O)CC(N)=O [Acetoacetamide] | 10%
CC(=O)CC(=O)Nc1ccccc1 [Acetoacetoanilide] | 1%

SMILES | Relative activity (%) (reducing activity)
CC(C)=O [Acetone] | 28%
CC(=O)c1ccccc1 [Acetophenone] | 100%
CC(=O)c1cnccn1 [Acetypyrazine] | 76%
O=Cc1ccccc1 [Benzaldehyde] | 29%
CC(=O)CC(=O)OCc1ccccc1 [Benzyl acetoacetate] | 115%
CC(=O)CCc1ccccc1 [Benzylacetone] | 33%
O=C1CCCC1 [Cyclopentanone] | 10%
CCOC(=O)C(Cl)C(C)=O (stereo not drawn) [Ethyl 2-chloroacetoacetate] | 26%
CCOC(=O)CC(C)=O [Ethyl 3-oxobutanoate] | 93%
CCCC(=O)CC(=O)OCC [Ethyl 3-oxohexanate] | 2%
CCOC(=O)c1ccc(C(C)=O)cc1 [Ethyl 4-acetylbenzoate] | 70%
CCOC(=O)CC(=O)CN=[N+]=[N-] [Ethyl 4-azideacetoacetate] | 21%
CCOC(=O)CC(=O)COCc1ccccc1 [Ethyl 4-benzyloxyacetoacetate] | 10%
CCOC(=O)CC(=O)CCl [Ethyl 4-chloroacetoacetate] | 52%
CCOC(=O)C(C)=O [Ethyl pyruvate] | 87%
O=CCCCC=O [Glutaraldehyde] | 9%
CCCCCCCCC(=O)C(=O)OC [Methyl 2-oxodecanate] | 2%
COC(=O)CC(=O)CCl [Methyl 4-chloroacetoacetate] | 35%
COC(=O)CC(C)=O [Methyl acetoacetate] | 66%
CC(=O)C(C)C [Methyl iso-propyl ketone] | 4%
COC(=O)C(C)=O [Methyl pyruvate] | 71%
CC(=O)CC(=O)Nc1ccc(C)cc1 [N-Acetoacetyl-p-toluidine] | 2%

SMILES | Relative activity (%) (reducing activity)
CCC=O [Propionaldehyde] | 39%
O=C1CCSC1 [Tetrahydrothiophen-3-one] | 4%
CC(=O)C(C)=O [diacethyl] | 24%
CC(=O)c1cccc(Cl)c1 [m-Chloroacetophenone] | 130%
CC(=O)c1cccc(O)c1 [m-Hydroxyacetophenone] | 12%
COc1cccc(C(C)=O)c1 [m-Methoxyacetophenone] | 111%
CC(=O)c1cccc([N+](=O)[O-])c1 [m-Nitroacetophenone] | 89%
O=Cc1cccc([N+](=O)[O-])c1 [m-Nitrobenzaldehyde] | 28%
CCCC=O [n-Butyraldehyde] | 117%
CCCCCC=O [n-Hexylaldehyde] | 117%
CCCCCCCCOC(=O)CC(=O)CCl [n-Octyl 4-chloroacetoacetate] | 24%
COc1ccccc1NC(=O)CC(C)=O [o-Acetoacetanisidide] | 35%
CC(=O)c1ccccc1Cl [o-Chloroacetophenone] | 2%
CC(=O)c1ccccc1O [o-Hydroxyacetophenone] | 9%
COc1ccccc1C(C)=O [o-Methoxyacetophenone] | 10%
O=Cc1ccccc1[N+](=O)[O-] [o-Nitrobenzeldehyde] | 29%
CC(=O)c1ccc(Cl)cc1 [p-Chloroacetohenone] | 130%
CC(=O)c1ccc(F)cc1 [p-Fluoroacetophenone] | 110%
CC(=O)c1ccc(C)cc1 [p-Methylacetophenone] | 91%
O=Cc1ccc([N+](=O)[O-])cc1 [p-Nitrobenzaldehyde] | 27%
CC(=O)CC(=O)OC(C)(C)C [tert-Butylacetoacetate] | 88%

same assay, conditions: pH 6.5

SMILES | Relative activity (%) (reducing activity)
O=C(CCl)c1cccc(Cl)c1 [2-Chloro-1-(3′-cholophenyl)ethanone] | 20%
